Activity calls are given as the source filed them. Rule as the data show it, for most assays here: actives have a measured EC50 and inactives only a lower limit.
Columns and labels:
[1] = biological target: Large T antigen (Simian virus 40, UniProt P03070); format: functional, Betapolyomavirus macacae;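 also: Confirmatory-stage PubChem screen for compounds that inhibit SV40 T antigen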
[2] = NIH3T3 cell viability loss – ATP luminescence, mouse fibroblasts, counter-screen, dose response (AID 2010); format: functional, cell-based;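 also: cells exposed to compound for about 90 hours before reading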
[3] = Trypanosoma cruzi growth suppression in host cells – NIH3T3 host cells, beta-gal luminescence, confirmation (AID 2044); format: functional, cell-based;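 also: intracellular parasites grown in NIH/3T3 mouse fibroblasts as host cells; luminescent beta-galactosidase reporter signal from transgenic T. cruzi replicating inside host cells; inhibitors lower the luminescence signal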
[4] = biological target: T1, Replicative DNA helicase DnaB (Mycobacterium tuberculosis, UniProt P9WMR3); test: DnaB intein splicing inhibitors, dose response, biochemical, cell-free fluorescence (AID 449749); format: functional
T1 sequence (P9WMR3 whole entry): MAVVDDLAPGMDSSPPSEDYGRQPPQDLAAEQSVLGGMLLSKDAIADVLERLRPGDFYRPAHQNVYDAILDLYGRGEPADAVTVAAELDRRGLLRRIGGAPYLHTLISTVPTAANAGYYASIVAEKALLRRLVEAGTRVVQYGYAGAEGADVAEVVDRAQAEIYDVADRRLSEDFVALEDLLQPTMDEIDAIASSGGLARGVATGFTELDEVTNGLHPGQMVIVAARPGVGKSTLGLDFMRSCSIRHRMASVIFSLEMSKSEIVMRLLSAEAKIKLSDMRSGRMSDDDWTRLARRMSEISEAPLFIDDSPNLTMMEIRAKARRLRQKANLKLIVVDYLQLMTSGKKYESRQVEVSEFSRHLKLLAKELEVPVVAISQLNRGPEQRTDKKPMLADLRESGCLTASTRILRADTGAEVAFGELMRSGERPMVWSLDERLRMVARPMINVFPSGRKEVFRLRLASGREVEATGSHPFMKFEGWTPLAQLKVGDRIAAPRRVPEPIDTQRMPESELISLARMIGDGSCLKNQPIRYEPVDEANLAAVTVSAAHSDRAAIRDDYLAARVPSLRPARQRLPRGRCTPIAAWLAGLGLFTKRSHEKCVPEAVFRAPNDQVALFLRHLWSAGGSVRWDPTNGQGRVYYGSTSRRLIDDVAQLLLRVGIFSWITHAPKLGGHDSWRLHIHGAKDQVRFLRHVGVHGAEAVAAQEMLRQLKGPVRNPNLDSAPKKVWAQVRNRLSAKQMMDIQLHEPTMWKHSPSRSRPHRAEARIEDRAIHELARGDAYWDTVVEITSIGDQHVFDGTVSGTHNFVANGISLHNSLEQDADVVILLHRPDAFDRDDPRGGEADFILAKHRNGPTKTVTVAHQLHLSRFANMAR

[5] = biological target: T2, Protein RecA (Mycobacterium tuberculosis, UniProt P9WHJ3); test: Fluorescence Cell-Free Homogeneous Dose Retest to Identify Inhibitors of RecA-Intein Splicing Activity. [Related pubchem assays (depositor defined):AID2097, AID2223, AID489010, AID492950]; format: functional
T2 sequence (P9WHJ3 whole entry): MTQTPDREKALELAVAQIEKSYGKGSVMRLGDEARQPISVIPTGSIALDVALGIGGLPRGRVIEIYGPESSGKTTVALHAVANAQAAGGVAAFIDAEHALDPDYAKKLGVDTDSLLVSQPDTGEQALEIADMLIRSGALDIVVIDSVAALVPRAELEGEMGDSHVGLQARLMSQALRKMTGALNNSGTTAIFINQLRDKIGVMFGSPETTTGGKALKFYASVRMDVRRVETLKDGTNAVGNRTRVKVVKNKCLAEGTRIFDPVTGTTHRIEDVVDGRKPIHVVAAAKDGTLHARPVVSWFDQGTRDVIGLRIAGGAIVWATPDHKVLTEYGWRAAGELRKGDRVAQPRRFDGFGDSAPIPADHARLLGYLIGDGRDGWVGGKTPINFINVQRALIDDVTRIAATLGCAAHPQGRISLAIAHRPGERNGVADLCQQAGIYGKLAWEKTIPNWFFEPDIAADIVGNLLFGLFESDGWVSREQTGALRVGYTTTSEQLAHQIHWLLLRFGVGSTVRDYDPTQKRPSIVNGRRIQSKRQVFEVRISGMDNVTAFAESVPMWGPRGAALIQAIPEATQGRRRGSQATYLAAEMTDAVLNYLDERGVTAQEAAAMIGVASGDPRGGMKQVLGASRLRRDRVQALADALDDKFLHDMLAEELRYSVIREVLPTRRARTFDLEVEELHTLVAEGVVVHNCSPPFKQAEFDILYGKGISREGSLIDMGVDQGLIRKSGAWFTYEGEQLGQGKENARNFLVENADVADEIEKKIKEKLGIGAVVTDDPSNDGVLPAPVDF

[6] = biological target: Cytochrome P450 2D6 (Homo sapiens, UniProt P10635);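 also: CYP2D6 member of a cytochrome P450 panel assay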
[7] = biological target: T3, Corticotropin-releasing factor receptor 2/Corticotropin-releasing factor-binding protein (Homo sapiens, UniProt P24387+Q13324); test: activators of CRF receptor 2 with binding protein – uHTS hits, confirmation (AID 602473); format: functional; settings: read-out: EC50_Mean
T3 sequence (Q13324 whole entry): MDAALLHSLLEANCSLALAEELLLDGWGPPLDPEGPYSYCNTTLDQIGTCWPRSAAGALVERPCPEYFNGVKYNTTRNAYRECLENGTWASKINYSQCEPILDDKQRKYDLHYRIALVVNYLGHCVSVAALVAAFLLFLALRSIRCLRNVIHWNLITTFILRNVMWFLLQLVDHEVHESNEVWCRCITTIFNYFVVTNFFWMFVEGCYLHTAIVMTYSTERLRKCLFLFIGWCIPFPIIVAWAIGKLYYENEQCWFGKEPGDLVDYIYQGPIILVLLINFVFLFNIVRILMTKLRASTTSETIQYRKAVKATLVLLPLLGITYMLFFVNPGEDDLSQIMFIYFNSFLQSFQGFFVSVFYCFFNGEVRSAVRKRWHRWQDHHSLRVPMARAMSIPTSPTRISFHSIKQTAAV
T3 sequence (P24387 whole entry): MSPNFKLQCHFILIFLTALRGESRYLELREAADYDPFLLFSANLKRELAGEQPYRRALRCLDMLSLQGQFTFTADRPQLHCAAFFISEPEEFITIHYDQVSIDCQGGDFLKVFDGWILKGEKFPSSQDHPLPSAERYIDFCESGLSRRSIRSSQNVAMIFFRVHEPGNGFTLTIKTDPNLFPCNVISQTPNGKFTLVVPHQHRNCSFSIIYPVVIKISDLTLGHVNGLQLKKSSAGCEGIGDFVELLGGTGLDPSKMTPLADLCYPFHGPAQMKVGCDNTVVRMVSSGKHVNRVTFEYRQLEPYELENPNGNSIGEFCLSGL

Chain of Cytochrome P450 2D6 (P10635 whole entry): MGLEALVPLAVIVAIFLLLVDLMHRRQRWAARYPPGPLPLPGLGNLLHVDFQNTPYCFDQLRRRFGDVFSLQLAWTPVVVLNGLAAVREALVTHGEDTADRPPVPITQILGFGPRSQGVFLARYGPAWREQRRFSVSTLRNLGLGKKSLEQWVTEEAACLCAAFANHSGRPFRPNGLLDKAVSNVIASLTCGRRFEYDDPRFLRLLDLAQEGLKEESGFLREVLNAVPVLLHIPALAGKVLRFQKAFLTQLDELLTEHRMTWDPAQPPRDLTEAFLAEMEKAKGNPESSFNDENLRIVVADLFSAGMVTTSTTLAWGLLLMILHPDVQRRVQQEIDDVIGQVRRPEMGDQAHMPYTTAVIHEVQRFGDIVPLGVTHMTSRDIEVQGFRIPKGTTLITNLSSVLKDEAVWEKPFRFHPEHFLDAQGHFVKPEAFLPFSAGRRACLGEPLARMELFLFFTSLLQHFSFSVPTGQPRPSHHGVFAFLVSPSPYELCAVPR
Chain of Large T antigen (P03070 whole entry): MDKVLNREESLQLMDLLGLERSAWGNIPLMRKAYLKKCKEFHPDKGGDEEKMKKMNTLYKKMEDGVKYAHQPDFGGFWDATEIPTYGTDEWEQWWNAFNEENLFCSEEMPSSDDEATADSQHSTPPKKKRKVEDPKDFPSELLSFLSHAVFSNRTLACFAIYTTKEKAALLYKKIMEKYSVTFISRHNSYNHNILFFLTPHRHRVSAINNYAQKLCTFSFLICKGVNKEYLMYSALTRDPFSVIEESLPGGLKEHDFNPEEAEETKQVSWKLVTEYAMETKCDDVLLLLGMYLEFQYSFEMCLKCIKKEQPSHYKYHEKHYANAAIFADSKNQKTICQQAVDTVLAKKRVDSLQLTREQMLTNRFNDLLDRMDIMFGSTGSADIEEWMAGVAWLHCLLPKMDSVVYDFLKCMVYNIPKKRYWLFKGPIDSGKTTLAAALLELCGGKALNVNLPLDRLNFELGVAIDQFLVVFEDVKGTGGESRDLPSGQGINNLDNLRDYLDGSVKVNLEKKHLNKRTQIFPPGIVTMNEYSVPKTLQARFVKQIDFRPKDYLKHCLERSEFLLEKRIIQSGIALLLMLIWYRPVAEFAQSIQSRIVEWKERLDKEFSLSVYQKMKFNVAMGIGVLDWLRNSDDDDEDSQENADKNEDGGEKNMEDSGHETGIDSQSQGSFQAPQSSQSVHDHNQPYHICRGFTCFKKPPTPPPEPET

For `COc1ccc(N2CCC(CN=C(S)Nc3c(C)cccc3C)C2)cc1` (stereo not drawn), the IC50 [1] was 14.6 µM (active), the EC50 [2] was > 60 µM (not active) and the EC50 [3] was 2.76 µM (active).
In the case of `Cc1ccc(-c2nn(-c3cc(N4CCNCC4)ccc3[N+](=O)[O-])c(=O)c3ccccc23)cc1`, the EC50 [2] was > 60 µM (inconclusive) and the EC50 [3] was 2.04 µM (active).
With `CC(C)c1ccc(C2C3=C(CC(C)(C)CC3=O)N=C3C2=C(O)c2ccccc23)cc1` (stereo not drawn) the EC50 [2] was > 60 µM (not active) and the EC50 [3] was 1.68 µM (active).
In the case of `O=C1/C(=C/c2ccncc2)SC(=S)N1Nc1ccccc1`, the IC50 [1] was 12.7 µM (active).
With `COc1cc(CNc2ccc(N3CCOCC3)cc2)ccc1OCC(=O)NC(C)(C)C` the IC50 [1] was 4.16 µM (active).
With `CC(=O)Nc1ccc(NC(=O)CSc2ncc(C(=O)Nc3ccc(F)cc3)c(=O)n2C)cc1` the AC50 [4] was > 380 µM (inactive) and the EC50 [5] was > 380 µM (inconclusive).
In the case of `Cc1ccccc1-c1cncnc1Nc1ccc(F)cc1`, the AC50 [6] was 39.8 µM (inconclusive).
For `CCOC(=O)/C(=N\Nc1ccccc1Cl)N1CCN(c2ccccc2OC)CC1`, the EC50 [2] was 33.7 µM (active) and the EC50 [3] was 1.18 µM (active).
With `C/C=C/C(=O)Nc1cccc(C2=NOC3(C2)C[C@@H](C(N)=O)N(C(=O)c2cc([N+](=O)[O-])cc([N+](=O)[O-])c2C)C3)c1` (stereo partly drawn) the EC50 [7] was > 53 µM (inactive).
In the case of `CCOC(=O)c1c(NC(=O)CSc2nnnn2C)sc(C)c1C`, the AC50 [6] was 25.1 µM (inconclusive).
In the case of `COC(=O)c1c(NC(=O)CN2CCC3(O)CCCCC3C2c2ccccc2OC)sc(C)c1C` (stereo not drawn), the EC50 [7] was > 53 µM (inactive).
With `C=C(C)COc1ccc(-c2ncncc2-c2ccccc2OC)c(O)c1` the EC50 [2] was > 60 µM (not active) and the EC50 [3] was 0.544 µM (active).
With `O=Cc1sc(=O)n(Cc2cccc(C(=O)O)c2)c1Cl` the AC50 [4] was 16.5 µM (active), the EC50 [5] was 9.42 µM (active) and the IC50 [1] was 18.6 µM (active).
In the case of `CCN1C(=O)C(=CC=CN(C)c2ccccc2)SC1=S`, the EC50 [7] was 6.59 µM (active).
In the case of `COc1ccccc1CNc1ncncc1-c1cccnc1`, the AC50 [6] was 20 µM (inconclusive).
In the case of `Cc1n[nH]c(Nc2ccc(O)cc2)c1[N+](=O)[O-]`, the IC50 [1] was 7.06 µM (active).
For `CC(C)(C)c1[nH]nc2c1C(c1ccoc1)C(C#N)=C(N)O2` (stereo not drawn), the AC50 [4] was 20.4 µM (active) and the EC50 [5] was 3.58 µM (active).
For `Cc1cc(C(=O)CN2C(=O)c3ccccc3C2=O)c(C)n1C1CC1`, the AC50 [4] was > 380 µM (inactive) and the EC50 [5] was > 380 µM (inactive).
For `CCCc1[nH][nH]c(=O)c1C(c1cccc(Cl)c1)C(C#N)C#N` (stereo not drawn), the AC50 [4] was > 380 µM (inactive) and the EC50 [5] was 0.755 µM (active).
In the case of `Cc1ccc(-[n+]2cc(=O)o[nH]2)cc1`, the AC50 [6] was 1.58 µM (inconclusive).
For `CCC(=O)Oc1ccc(C(=O)Nc2cccc(C(=O)c3ccccc3)c2)cc1`, the AC50 [4] was 13.2 µM (active) and the EC50 [5] was 13.8 µM (active).
With `CCOC(=O)N/N=C\c1ccc(OC(=O)c2ccco2)cc1` the AC50 [4] was 17 µM (active) and the EC50 [5] was 14.5 µM (active).
In the case of `CC1=NNC(=O)C1C(c1ccccc1)C(C#N)C#N` (stereo not drawn), the AC50 [4] was 5.23 µM (active) and the EC50 [5] was 3.84 µM (active).
